Assay results: ChEMBL document CHEMBL4387711, “Discovery of niclosamide and its O-alkylamino-tethered derivatives as potent antibacterial agents against carbapenemase-producing and/or colistin resistant Enterobacteriaceae isolates” (2019)
In brackets after ≈: the same amount, converted by molar mass. Activity calls are given as the source filed them. The calls are words filed in the database; no cut-off is given here.

How the values were obtained:
[1] = test system: Klebsiella pneumoniae; experiment: Antibacterial activity against carbapenemase/Klebsiella pneumoniae CECT-997 by broth microdilution method; type: functional
[2] = test system: Klebsiella pneumoniae; experiment: Antibacterial activity against Klebsiella pneumoniae CECT-997 assessed as inhibition of growth at 50 uM after 18 hrs; type: functional, organism-based
[3] = test system: Klebsiella pneumoniae; experiment: Antibacterial activity against colistin-susceptible VIM1/carbapenemase-producing Klebsiella pneumoniae 07 assessed as inhibition of growth at 50 uM after 18 hrs; type: functional, organism-based
[4] = test system: Klebsiella pneumoniae; experiment: Antibacterial activity against colistin-resistant VIM1/DHAI/carbapenemase-producing Klebsiella pneumoniae 21 assessed as inhibition of growth at 50 uM after 18 hrs; type: functional, organism-based
[5] = test system: Klebsiella pneumoniae; experiment: Antibacterial activity against colistin-susceptible OXA-48/CTX-M-15/carbapenemase-producing Klebsiella pneumoniae 28 assessed as inhibition of growth at 50 uM after 18 hrs; type: functional, organism-based
[6] = test system: Klebsiella pneumoniae; experiment: Antibacterial activity against colistin-resistant OXA-48/CTX-M-15/carbapenemase-producing Klebsiella pneumoniae 29 assessed as inhibition of growth at 50 uM after 18 hrs; type: functional, organism-based
[7] = test system: Klebsiella pneumoniae; experiment: Antibacterial activity against colistin-susceptible OXA-48/CTX-M-15/carbapenemase-producing Klebsiella pneumoniae 28 by broth microdilution method; type: functional
[8] = test system: Klebsiella pneumoniae; experiment: Antibacterial activity against colistin-susceptible NDM-1/carbapenemase-producing Klebsiella pneumoniae assessed as inhibition of growth at 50 uM after 18 hrs; type: functional, organism-based
[9] = test system: Klebsiella pneumoniae; experiment: Antibacterial activity against colistin-susceptible NDM-1/carbapenemase-producing Klebsiella pneumoniae by broth microdilution method; type: functional
[10] = test system: Escherichia coli; experiment: Antibacterial activity against colistin-susceptible NDM1/KPC-producing Escherichia coli assessed as inhibition of growth at 50 uM after 18 hrs; type: functional, organism-based
[11] = test system: Escherichia coli; experiment: Antibacterial activity against colistin-susceptible NDM1/KPC-producing Escherichia coli by broth microdilution method; type: functional
[12] = test system: Klebsiella aerogenes; experiment: Antibacterial activity against colistin-resistant Enterobacter aerogenes 3 assessed as inhibition of growth at 50 uM after 18 hrs; type: functional, organism-based
[13] = test system: Enterobacter cloacae; experiment: Antibacterial activity against colistin-resistant Enterobacter cloacae 32 assessed as inhibition of growth at 50 uM after 18 hrs; type: functional, organism-based
[14] = test system: Klebsiella aerogenes; experiment: Antibacterial activity against colistin-resistant Enterobacter aerogenes 53 assessed as inhibition of growth at 50 uM after 18 hrs; type: functional, organism-based
[15] = test system: Enterobacter cloacae; experiment: Antibacterial activity against colistin-resistant Enterobacter cloacae 142 assessed as inhibition of growth at 50 uM after 18 hrs; type: functional, organism-based
[16] = test system: Enterobacter cloacae; experiment: Antibacterial activity against colistin-resistant Enterobacter cloacae 190 assessed as inhibition of growth at 50 uM after 18 hrs; type: functional, organism-based
[17] = test system: Enterobacter cloacae; experiment: Antibacterial activity against colistin-resistant Enterobacter cloacae 263 assessed as inhibition of growth at 50 uM after 18 hrs; type: functional, organism-based
[18] = test system: Enterobacter cloacae; experiment: Antibacterial activity against colistin-resistant Enterobacter cloacae 272 assessed as inhibition of growth at 50 uM after 18 hrs; type: functional, organism-based
[19] = test system: Enterobacter cloacae; experiment: Antibacterial activity against colistin-resistant Enterobacter cloacae 280 assessed as inhibition of growth at 50 uM after 18 hrs; type: functional, organism-based
[20] = test system: Enterobacter cloacae; experiment: Antibacterial activity against colistin-resistant Enterobacter cloacae 280 by broth microdilution method; type: functional
[21] = test system: Enterobacter cloacae; experiment: Antibacterial activity against colistin-resistant Enterobacter cloacae 297 assessed as inhibition of growth at 50 uM after 18 hrs; type: functional, organism-based
[22] = test system: Enterobacter cloacae; experiment: Antibacterial activity against colistin-resistant Enterobacter cloacae 297 by broth microdilution method; type: functional
[23] = test system: Escherichia coli; experiment: Synergistic antibacterial activity against colistin-susceptible NDM1/KPC-producing Escherichia coli in presence of colistin by checkerboard assay; type: functional
[24] = test system: Klebsiella pneumoniae; experiment: Synergistic antibacterial activity against colistin-susceptible NDM-1/carbapenemase-producing Klebsiella pneumoniae in presence of colistin by checkerboard assay; type: functional
[25] = test system: Escherichia coli; experiment: Bactericidal activity against colistin-susceptible NDM-1/KPC-producing Escherichia coli assessed as reduction in bacterial count at MIC measured after 2 hrs by time kill assay; type: functional, organism-based
[26] = test system: Escherichia coli; experiment: Bactericidal activity against colistin-susceptible NDM-1/KPC-producing Escherichia coli assessed as reduction in bacterial count at MIC measured after 2 hrs in presence of colistin by time kill assay; type: functional, organism-based
[27] = test system: Klebsiella pneumoniae; experiment: Synergistic bactericidal activity against OXA-48/CTX-M-15/carbapenemase-producing Klebsiella pneumoniae 28 assessed as reduction in bacterial count at MIC measured after 8 hrs in presence of colistin by time kill assay; type: functional, organism-based
[28] = test system: Klebsiella pneumoniae; experiment: Bactericidal activity against OXA-48/CTX-M-15/carbapenemase-producing Klebsiella pneumoniae 28 assessed as reduction in bacterial count at MIC measured from 4 to 8 hrs in presence of colistin by time kill assay; type: functional, organism-based
[29] = test system: Klebsiella pneumoniae; experiment: Antibacterial activity against colistin-susceptible VIM1/carbapenemase-producing Klebsiella pneumoniae 07 by broth microdilution method; type: functional, organism-based
[30] = test system: Klebsiella pneumoniae; experiment: Antibacterial activity against colistin-resistant VIM1/DHAI/carbapenemase-producing Klebsiella pneumoniae 21 by broth microdilution method; type: functional, organism-based
[31] = test system: Klebsiella pneumoniae; experiment: Antibacterial activity against colistin-resistant OXA-48/CTX-M-15/carbapenemase-producing Klebsiella pneumoniae 29 by broth microdilution method; type: functional, organism-based
[32] = test system: Klebsiella aerogenes; experiment: Antibacterial activity against colistin-resistant Enterobacter aerogenes 3 by broth microdilution method; type: functional, organism-based
[33] = test system: Enterobacter cloacae; experiment: Antibacterial activity against colistin-resistant Enterobacter cloacae 32 by broth microdilution method; type: functional, organism-based
[34] = test system: Klebsiella aerogenes; experiment: Antibacterial activity against colistin-resistant Enterobacter aerogenes 53 by broth microdilution method; type: functional, organism-based
[35] = test system: Enterobacter cloacae; experiment: Antibacterial activity against colistin-resistant Enterobacter cloacae 142 by broth microdilution method; type: functional, organism-based
[36] = test system: Enterobacter cloacae; experiment: Antibacterial activity against colistin-resistant Enterobacter cloacae 190 by broth microdilution method; type: functional, organism-based
[37] = test system: Enterobacter cloacae; experiment: Antibacterial activity against colistin-resistant Enterobacter cloacae 263 by broth microdilution method; type: functional, organism-based
[38] = test system: Enterobacter cloacae; experiment: Antibacterial activity against colistin-resistant Enterobacter cloacae 272 by broth microdilution method; type: functional, organism-based
[39] = test system: Klebsiella pneumoniae; experiment: Synergistic bactericidal activity against OXA-48/CTX-M-15/carbapenemase-producing Klebsiella pneumoniae 28 assessed as reduction in bacterial count at MIC measured after 2 hrs in presence of colistin by time kill assay; type: functional, organism-based
[40] = test system: Klebsiella pneumoniae; experiment: Bactericidal activity against OXA-48/CTX-M-15/carbapenemase-producing Klebsiella pneumoniae 28 assessed as reduction in bacterial count at MIC measured from 2 hrs in presence of colistin by time kill assay; type: functional, organism-based
[41] = test system: Enterobacter cloacae; experiment: Synergistic antibacterial activity against colistin-resistant Enterobacter cloacae 280 in presence of colistin by checkerboard assay; type: functional
[42] = test system: Enterobacter cloacae; experiment: Synergistic antibacterial activity against colistin-resistant Enterobacter cloacae 297 in presence of colistin by checkerboard assay; type: functional
[43] = test system: Enterobacter cloacae; experiment: Bactericidal activity against colistin-resistant Enterobacter cloacae 280 assessed as reduction in bacterial count at MIC measured after 2 hrs in presence of colistin by time kill assay; type: functional, organism-based
[44] = test system: Enterobacter cloacae; experiment: Synergistic bactericidal activity against colistin-resistant Enterobacter cloacae 280 assessed as reduction in bacterial count at MIC measured after 8 hrs in presence of colistin by time kill assay; type: functional, organism-based

| Compound | MIC [1] | growth inhibition (GI) [2] | growth inhibition (GI) [3] | growth inhibition (GI) [4] | growth inhibition (GI) [5] | growth inhibition (GI) [6] | MIC [7] | growth inhibition (GI) [8] | MIC [9] | growth inhibition (GI) [10] | MIC [11] | growth inhibition (GI) [12] | growth inhibition (GI) [13] | growth inhibition (GI) [14] | growth inhibition (GI) [15] | growth inhibition (GI) [16] | growth inhibition (GI) [17] | growth inhibition (GI) [18] | MIC [20] | MIC [22] | also measured |
| --- | --- | --- | --- | --- | --- | --- | --- | --- | --- | --- | --- | --- | --- | --- | --- | --- | --- | --- | --- | --- | --- |
| NCCCCOc1ccc(Cl)cc1C(=O)Nc1ccc([N+](=O)[O-])cc1Cl | 15 µg/mL (≈ 37.7 µM) | Active | inactive | inactive | Active | inactive | 15 µg/mL (≈ 37.7 µM) | Active | > 15 µg/mL | Active | 15 µg/mL (≈ 37.7 µM) | inactive | inactive | inactive | inactive | inactive | inactive | inactive | > 15 µg/mL | > 15 µg/mL | growth inhibition (GI) [19]: Active; growth inhibition (GI) [21]: Active; fractional inhibitory concentration index (FICI) [23]: 0.25; fractional inhibitory concentration index (FICI) [24]: 0.5; Activity [25]: Active; Activity [26]: Active; Activity [27]: Active; Activity [28]: Active |
| COLISTIN | – | – | – | – | – | – | 0.5 µg/mL | – | 0.5 µg/mL | – | 0.5 µg/mL | – | – | – | – | – | – | – | 32 µg/mL | 3 µg/mL | MIC [29]: 0.5 µg/mL; MIC [30]: 64 µg/mL; MIC [31]: 32 µg/mL; MIC [32]: 32 µg/mL; MIC [33]: > 256 µg/mL; MIC [34]: 32 µg/mL; MIC [35]: 64 µg/mL; MIC [36]: 32 µg/mL; MIC [37]: 8 µg/mL; MIC [38]: 16 µg/mL; Activity [25]: Active |
| NCCCCCOc1ccc(Cl)cc1C(=O)Nc1ccc([N+](=O)[O-])cc1Cl | inactive | inactive | inactive | inactive | Active | inactive | 15 µg/mL (≈ 36.4 µM) | Active | > 15 µg/mL | Active | > 15 µg/mL | inactive | inactive | inactive | inactive | inactive | inactive | inactive | inactive | inactive | growth inhibition (GI) [19]: inactive; growth inhibition (GI) [21]: inactive; fractional inhibitory concentration index (FICI) [23]: 0.38; Activity [39]: Active; Activity [40]: Active |
| O=C(Nc1ccc([N+](=O)[O-])cc1Cl)c1cc(Cl)ccc1O [NICLOSAMIDE] | inactive | inactive | inactive | inactive | inactive | inactive | inactive | inactive | inactive | inactive | inactive | inactive | inactive | inactive | inactive | inactive | inactive | inactive | > 15 µg/mL | > 15 µg/mL | growth inhibition (GI) [19]: Active; growth inhibition (GI) [21]: Active; fractional inhibitory concentration index (FICI) [41]: 0.25; fractional inhibitory concentration index (FICI) [42]: 0.25; Activity [43]: Active; Activity [44]: Active |
| NCCOCCOc1ccc(Cl)cc1C(=O)Nc1ccc([N+](=O)[O-])cc1Cl | inactive | inactive | inactive | inactive | inactive | inactive | inactive | inactive | inactive | Active | > 15 µg/mL | inactive | inactive | inactive | inactive | inactive | inactive | inactive | inactive | > 15 µg/mL | growth inhibition (GI) [19]: inactive; growth inhibition (GI) [21]: Active |
| CC[C@H](N)COc1ccc(Cl)cc1C(=O)Nc1ccc([N+](=O)[O-])cc1Cl | inactive | inactive | inactive | inactive | inactive | inactive | inactive | inactive | inactive | Active | > 15 µg/mL | inactive | inactive | inactive | inactive | inactive | inactive | inactive | inactive | inactive | growth inhibition (GI) [19]: inactive; growth inhibition (GI) [21]: inactive; fractional inhibitory concentration index (FICI) [23]: 0.5 |
